This is an account of results in ChEMBL document CHEMBL1201862, “PubChem BioAssay data set” (2004).

What all share (experiment): NCI-60 cell line screen, 48 h
Experiment [1] deals with UACC-257.
Experiment [2] has as its system SF-295.
The test system of experiment [3] is SN12C.
Experiment [4] relates to SF-268.
Experiment [5] concerns MCF7.
For experiment [6], the system named is NCI-H226.
Experiment [7] deals with MDA-MB-435.
The subject of experiment [8] is DU-145.
For experiment [9], the system named is M14.
Experiment [10] has as its system SK-MEL-28.
In experiment [11] the test system is ACHN.
Experiment [12] has as its system HCC 2998.
Experiment [13] has as its system KM12.
The subject of experiment [14] is NCI-H23.
The subject of experiment [15] is UO-31.
Experiment [16] relates to OVCAR-3.
Experiment [17] has as its system SR.
For experiment [18], the system named is SF-539.
In experiment [19] the test system is SNB-75.

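Values below derive from 48-hour exposures of cells grown in 96-well plates, with endpoints linearly interpolated between the two concentrations bracketing the appropriate inhibition level. GI50: concentration for 50% inhibition of growth.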 Active and inactive are the calls of the source. Rule as the data show it: active = GI50 up to about 1.1 µM and inactive = higher.

On to `Cc1ccc(C)c2c1C/C(=C\c1ccccc1C(=O)O)C2=O`, for which the GI50 in [1] was > 100 µM (inactive); in experiment [2], > 100 µM (inactive); in experiment [3], > 100 µM (inactive); in experiment [4], 89.3 µM (inactive); in [5], > 100 µM (inactive); in experiment [6], 20.8 µM (inactive). For the same compound, the GI50 was 67.5 µM (inactive) in experiment [7]; 97.3 µM (inactive) in experiment [8]; > 100 µM (inactive) in experiment [9]; > 100 µM (inactive) in experiment [10]; > 100 µM (inactive) in experiment [11]; > 100 µM (inactive) in experiment [12]. Besides, the GI50 is > 100 µM (inactive) in experiment [13]; > 100 µM (inactive) in [14]; > 100 µM (inactive) in experiment [15]; 54.2 µM (inactive) in experiment [16]; 36.1 µM (inactive) in [17]; 18.5 µM (inactive) in experiment [18]. Moreover, the GI50 in experiment [19] is > 100 µM (inactive).
For the compound `C[C@]12CC[C@@H]3c4cc(C=O)c(OCc5ccccc5)cc4CC[C@H]3[C@@H]1CCC2OCc1ccccc1` (stereo not given in full), the GI50 was 58.9 µM (inactive) in experiment [1]; > 100 µM (inactive) in experiment [2]; > 100 µM (inactive) in experiment [3]; > 100 µM (inactive) in [4]; > 100 µM (inactive) in [5]; 32.8 µM (inactive) in experiment [6]. For the same compound, the GI50 is > 100 µM (inactive) in [7]; > 100 µM (inactive) in [8]; > 100 µM (inactive) in experiment [9]; > 100 µM (inactive) in experiment [10]; 95.9 µM (inactive) in experiment [11]; > 100 µM (inactive) in [12]. For the same compound, the GI50 in [13] was > 100 µM (inactive); in experiment [14], 89.9 µM (inactive); in [15], > 100 µM (inactive); in experiment [16], > 100 µM (inactive); in experiment [17], 73.1 µM (inactive); in experiment [18], > 100 µM (inactive). In [19], the GI50 is > 100 µM (inactive).
In the case of `Cc1ccc(NC(=S)N/N=C(/c2ccccc2)c2ccccn2)cc1`, the GI50 was < 0.0156 µM (active) in experiment [1]; 0.212 µM (active) in experiment [2]; 0.121 µM (active) in experiment [3]; < 0.0233 µM (active) in experiment [4]; 0.0164 µM (active) in [5]; 0.124 µM (active) in experiment [6]. Also, the GI50 was 0.4 µM (active) in experiment [7]; 0.938 µM (active) in experiment [8]; < 0.01 µM (active) in [9]; 0.224 µM (active) in experiment [10]; < 0.0371 µM (active) in [11]; 2.22 µM (inactive) in experiment [12]. Also, the GI50 in experiment [13] is 0.1 µM (active); in experiment [14], < 0.0187 µM (active); in experiment [15], 0.177 µM (active); in experiment [16], 0.0169 µM (active); in [17] it was < 0.01 µM (active); in experiment [18], 0.729 µM (active). Moreover, the GI50 in experiment [19] was 0.343 µM (active).
For the compound `COc1ccc(/C=C/C(=O)c2ccccc2)cc1OC`, the GI50 in experiment [1] is 17.3 µM (inactive); in [2], 16.4 µM (inactive); in experiment [3] it was 14.6 µM (inactive); in experiment [4], 14.5 µM (inactive); in experiment [5], 2.52 µM (inactive); in [6], 19.8 µM (inactive). Also, the GI50 is 4.59 µM (inactive) in experiment [7]; 11.4 µM (inactive) in experiment [8]; 15 µM (inactive) in experiment [9]; 21.1 µM (inactive) in experiment [10]; 15.5 µM (inactive) in [11]; 17.9 µM (inactive) in [12]. The GI50 in [13] was 3.13 µM (inactive); in [14] it was 20.7 µM (inactive); in experiment [15], 13.3 µM (inactive); in experiment [16] it was 11.4 µM (inactive); in experiment [17], 3.15 µM (inactive); in [18], 11.1 µM (inactive). In experiment [19], the GI50 was 14 µM (inactive).
Take `C=C1CC(COc2cc(=O)oc3ccccc23)(c2ccccc2)OC1=O` (stereo not given): the GI50 in experiment [1] is 1.99 µM (inactive); in experiment [2], 5.15 µM (inactive); in experiment [3], 1.91 µM (inactive); in experiment [4] it was 7.33 µM (inactive); in experiment [5], 0.413 µM (active); in [6], 8.17 µM (inactive). The GI50 in experiment [7] is 3.7 µM (inactive); in experiment [8], 2.44 µM (inactive); in experiment [9], 1.51 µM (inactive); in [10] it was 2.41 µM (inactive); in [11] it was 2.5 µM (inactive); in [12], 1.05 µM (active). Further, the GI50 in experiment [13] is 3.34 µM (inactive); in [14], 1.77 µM (inactive); in experiment [15], 6.64 µM (inactive); in experiment [16] it was 1.37 µM (inactive); in experiment [17] it was 6.32 µM (inactive); in [18], 2.74 µM (inactive). In experiment [19], the GI50 was 4.25 µM (inactive).
Regarding `CO[C@H]1C[C@H](O[C@H]2CC[C@]3(C=O)[C@H]4CC[C@]5(C)[C@@H](C6=CC(=O)OC6)CC[C@]5(O)[C@@H]4CC[C@]3(O)C2)O[C@H](C)[C@H]1O` [CYMARIN], the GI50 was 0.37 µM (active) in experiment [1]; 0.133 µM (active) in experiment [2]; 0.042 µM (active) in [3]; 0.126 µM (active) in [4]; 0.463 µM (active) in [5]; 0.54 µM (active) in experiment [6]. In addition, the GI50 is 0.344 µM (active) in experiment [7]; 0.115 µM (active) in experiment [8]; 0.528 µM (active) in [9]; 0.845 µM (active) in experiment [10]; 0.0912 µM (active) in experiment [11]; 2.08 µM (inactive) in experiment [12]. Also, the GI50 is 0.402 µM (active) in [13]; 0.157 µM (active) in [14]; 0.308 µM (active) in [15]; 0.146 µM (active) in [16]; 0.409 µM (active) in [17]; 0.0809 µM (active) in experiment [18]. For the same compound, the GI50 in [19] was 0.4 µM (active).
On to `COC(=O)CCCc1nc2ccccc2nc1/N=N/c1ccccc1`, for which the GI50 is 45.9 µM (inactive) in experiment [1]; 41 µM (inactive) in experiment [2]; 51.5 µM (inactive) in experiment [3]; 51.2 µM (inactive) in [4]; 30.8 µM (inactive) in [5]; 43 µM (inactive) in experiment [6]. The GI50 was 58.7 µM (inactive) in experiment [7]; 48.3 µM (inactive) in experiment [8]; 27.6 µM (inactive) in [9]; 38.5 µM (inactive) in [10]; 74 µM (inactive) in [11]; > 100 µM (inactive) in experiment [12]. Moreover, the GI50 in experiment [13] is 37.1 µM (inactive); in experiment [14] it was 39 µM (inactive); in experiment [15], 25.9 µM (inactive); in [16], 31.3 µM (inactive); in [17], 20.8 µM (inactive); in [18], 70.8 µM (inactive). Also, the GI50 in [19] is 38.5 µM (inactive).
Regarding `COc1c2c3c4c(c(OC)c(=O)c5c(O)cc(OC)c(c6c(OC)cc(O)c(c1=O)c63)c54)C(C(C)O)C2C(C)=O` (stereo not given), the GI50 is 0.521 µM (active) in experiment [1]; 0.256 µM (active) in [2]; 0.485 µM (active) in experiment [3]; 0.492 µM (active) in experiment [4]; 0.603 µM (active) in experiment [5]; 0.528 µM (active) in experiment [6]. Further, the GI50 is 0.295 µM (active) in experiment [7]; 0.641 µM (active) in experiment [8]; 0.288 µM (active) in experiment [9]; 0.189 µM (active) in experiment [10]; 0.497 µM (active) in experiment [11]; 0.481 µM (active) in experiment [12]. Moreover, the GI50 in [13] was 0.431 µM (active); in [14] it was 0.331 µM (active); in experiment [15], 0.325 µM (active); in experiment [16] it was 0.338 µM (active); in experiment [17], 0.178 µM (active); in [18], 0.296 µM (active). In experiment [19], the GI50 was 0.256 µM (active).
For the compound `COc1ccc(-c2nc3c(C(=O)NCCN(C)C)cccc3c3ccccc23)cc1`, the GI50 in experiment [1] is 1.89 µM (inactive); in [2], 2.18 µM (inactive); in experiment [3], 4.2 µM (inactive); in [4], 8.53 µM (inactive); in [5], 2.46 µM (inactive); in experiment [6], 5.57 µM (inactive). Also, the GI50 was 2.2 µM (inactive) in experiment [7]; 4.65 µM (inactive) in experiment [8]; 1.98 µM (inactive) in experiment [9]; 1.97 µM (inactive) in experiment [10]; 3.25 µM (inactive) in experiment [11]; 1.95 µM (inactive) in [12]. In addition, the GI50 was 3.58 µM (inactive) in experiment [13]; 6.07 µM (inactive) in experiment [14]; 1.16 µM (inactive) in experiment [15]; 4.57 µM (inactive) in experiment [16]; 2.43 µM (inactive) in experiment [17]; 2.21 µM (inactive) in experiment [18]. Moreover, in experiment [19], the GI50 is 5.13 µM (inactive).
On to `C1=C(c2ccccc2)C(N2CCOCC2)Oc2ccccc21` (stereo not given), for which the GI50 in experiment [1], in experiment [2], in experiment [3], in experiment [4], in [5] and in [6] was > 100 µM (inactive) in each case. In addition, the GI50 in experiment [7], in [8], in experiment [9], in experiment [10], in experiment [11] and in experiment [12] was > 100 µM (inactive) throughout. The GI50 in [13] was > 100 µM (inactive); in [14], > 100 µM (inactive); in [15] it was 87.7 µM (inactive); in experiment [16], > 100 µM (inactive); in experiment [17], > 100 µM (inactive); in experiment [18] it was > 100 µM (inactive). Also, the GI50 in [19] is 32.5 µM (inactive).
